Structures can show the parent of a compound that is named as a salt.
How the values were obtained:
[1] = target: T1, recombinant human B1 receptors (Homo sapiens, UniProt P46663); assay: Functional assay: cytosolic calcium ion concentration measured with plate reader fluorimeter in CHO-B1 cells, agonist LysDABK; format: cell-based; settings: CHO-B1 cells, LysDABK at EC80, [Ca2+]i; read-out: B1 func.
T1 construct: host or cells: CHO (CHO-B1)
T1 sequence (P46663 1-353): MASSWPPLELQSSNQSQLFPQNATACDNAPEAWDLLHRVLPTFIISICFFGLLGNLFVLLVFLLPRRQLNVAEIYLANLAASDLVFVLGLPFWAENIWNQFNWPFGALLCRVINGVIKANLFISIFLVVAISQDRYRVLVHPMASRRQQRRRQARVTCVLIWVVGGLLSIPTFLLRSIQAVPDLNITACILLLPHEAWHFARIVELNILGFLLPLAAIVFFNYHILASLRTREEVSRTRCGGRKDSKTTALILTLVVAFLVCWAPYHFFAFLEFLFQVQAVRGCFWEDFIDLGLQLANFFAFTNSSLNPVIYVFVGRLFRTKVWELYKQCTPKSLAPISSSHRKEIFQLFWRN
Method: Assessment of Antagonist Potency at B1 and B2 Receptors In Vitro by Measurement of Cytosolic Calcium Ion Concentration with a Plate Reader Fluorimeter in Cells Expressing Recombinant Human B1 or B2 Receptors
Chinese hamster ovary (CHO) cells stably expressing recombinant human B1 (CHO-B1, Euroscreen) or B2 (CHO-B2, Perkin-Elmer) receptors were cultured in Dulbecco's Modified Eagle's Medium (DMEM) containing 10% Fetal Calf Serum (FCS), 100 U/ml penicillin, 0.1 mg/ml streptomycin, 0.25 μg/ml amphotericin B, 1% Minimum Essential Medium Eagle (MEM), non essential amino acid solution, 600 μg/ml G418, 1% pyruvate (for the B2 cell line). Cells were kept at 37° C. in a humidified incubator in an atmosphere of 5% CO2/95% air and were passaged 1:4 three times a week. Cells were plated at 1.5-2.5×10^4 cell/well on standard 96-well microplates, measurements of cytosolic calcium ion concentration ([Ca^2+]i) were carried out 1-2 days after cell plating.
Measurements of [Ca^2+]i were carried out on CHO-B1 and CHO-B2 cells stably expressing human B1 and B2 receptors, respectively. Cells were grown in standard 96-well microplates and before the measurement were loaded with a fluorescent Ca^2+-sensitive dye, fluo-4/AM (2 μM): after removing the culture medium the dye was added to the cells (dissolved in assay buffer: 145 mM NaCl, 5 mM KCl, 2 mM MgCl2, 2 mM CaCl2, 10 mM HEPES, 20 mM D-glucose, 2 mM probenecid, 100 μl/well) and cells were incubated at 37° C. in a humidified incubator in an atmosphere of 5% CO2/95% air for 40-120 min. To stop dye loading cells were washed twice with assay buffer. After washing, various concentrations of the test compounds (diluted in extracellular medium from a DMSO stock solution, final DMSO concentration was <0.1%) or buffer were added to each well depending on the experimental setup. After incubation at 37° C. for 20-25 min. baseline and agonist-evoked changes of [Ca^2+]i were measured column by column with a plate reader fluorimeter (Fluoroskan Ascent, Labsystems). Excitation and detection of emission was carried out from the bottom of the plate. Filters used for Fluo-4: excitation filter—485 nm, emission filter—538 nm. The whole measurement process was performed at 37° C. and was controlled by custom software. Inhibitory potency of the test compounds was assessed by measuring the reduction in the agonist-evoked [Ca^2]i-elevation in the presence of different concentrations of the compounds. The agonists were LysDABK for CHO-B1, and bradykinin for CHO-B2 cells. Agonists were applied at an EC80 concentration, the EC80-values were derived from daily determined dose-response curves. Fluorescence data were expressed as ΔF/F (fluorescence change normalized to baseline). All treatments on a single plate were measured in multiple wells. Data from all wells with the same treatment were averaged and the average values were used for analysis. Inhibitory potency of a compound at a single concentration point was expressed as percent inhibition of the control agonist response. Sigmoidal concentration-inhibition curves were fitted to the data (derived from at least three independent experiments) and IC50-values were determined as the concentration that produces half of the maximal inhibition caused by the compound.

[2] = target: T2, human recombinant bradykinin B1 receptor (Homo sapiens, UniProt P46663); assay: Human recombinant bradykinin B1 receptor binding; settings: radioligand [3H]-[Des-Arg10] Kallidin, CHO cell membranes; read-out: B1 binding
T2 construct: purchased Euroscreen ES-091; host or cells: CHO cells
T2 sequence (P46663 1-353): T1 sequence (P46663 1-353)
Method: 1. Human Recombinant Bradykinin B1 Receptor Binding
Binding assays were carried out on human recombinant bradykinin) receptors (expressed in CHO cells) according to the Euroscreen Technical Data Sheet (Cat.No.:ES-091). 20 μg protein/tube was incubated with [3,4-prolyl-3,4-^3H(N)]-[Des-Arg^10] Kallidin as radioligand. Non specific binding was determined in the presence of 10 μM Lys-des-Arg^9-Bradykinin. The final incubation volume was 250 μl. Samples were incubated for 15 min. at 25° C. then were rapidly vacuum filtered through GF/B filters presoaked for at least 1 h in 0.5% PEI. Radioactivity was determined by liquid scintillation spectroscopy.

Row | Compound | IC50 [1] [nM] | Ki [2] [nM]
1 | 4-[1-(3,4-Dichloro-phenoxy)-phenylsulfamoyl]-N-[3-(4-pyridin-4-yl-piperazin-1-yl)-propyl]-benzamide [Example 66] | < 20 | < 20
2 | O=C(NCCN1CCN(c2ccncc2)CC1)c1ccc(S(=O)(=O)Nc2ccccc2Oc2ccc(Cl)cc2Cl)cc1 [Example 1, 4-[2-(2,4-Dichloro-phenoxy)-phenylsulfamoyl]-N-{2-[4-pyridin-4-yl-piperazin-1-yl)-ethyl]-benzamide dihydrochloride] | < 20 | < 20
3 | O=C(NCCc1ccc(C2=NCCN2)cc1)c1ccc(S(=O)(=O)Nc2ccccc2Oc2ccc(Cl)cc2Cl)cc1 [Example 2, 4-[2-(2,4-Dichloro-phenoxy)-phenylsulfamoyl]-N-{2-[4-(4,5-dihydro-1H-imidazol-2-yl)-phenyl]-ethyl}-benzamide trifluoroacetate] | < 20 | < 20
4 | O=C(NCCCN1CCC(N2CCCCC2)CC1)c1ccc(S(=O)(=O)Nc2ccccc2Oc2ccc(Cl)cc2Cl)cc1 [Example 3, N-(3-[1,4′]Bipiperidinyl-1′-yl-propyl)-4-[2-(2,4-dichloro-phenoxy)-phenylsulfamoyl]-benzamide] | < 20 | < 20
5 | O=C(NCCc1ccc(C2=NCCN2)cc1)c1ccc(S(=O)(=O)Nc2ccccc2Oc2ccc(Cl)c(Cl)c2)cc1 [Example 4, 4-[2-(3,4-Dichloro-phenoxy)-phenylsulfamoyl]-N-{2-[4-(4,5-dihydro-1H-imidazol-2-yl)-phenyl]-ethyl}-benzamide] | < 20 | < 20
6 | O=C(NCCCN1CCC(N2CCCCC2)CC1)c1ccc(S(=O)(=O)Nc2ccccc2Oc2ccc(Cl)c(Cl)c2)cc1 [Example 5, N-(3-[1,4′]Bipiperidinyl-1′-yl-propyl)-4-[2-(3,4-dichloro-phenoxy)-phenylsulfamoyl]-benzamide] | < 20 | < 20
7 | O=C(NCCc1ccc(C2=NCCN2)cc1)c1ccc(S(=O)(=O)Nc2ccccc2Oc2ccc(Cl)cc2)cc1 [Example 6, 4-[2-(4-Chloro-phenoxy)-phenylsulfamoyl]-N-{2-[4-(4,5-dihydro-1H-imidazol-2-yl)-phenyl]-ethyl}-benzamide] | < 20 | < 20
8 | O=C(NCCc1ccc(C2=NCCN2)cc1)c1ccc(S(=O)(=O)Nc2ccccc2Oc2ccc(Br)cc2)cc1 [Example 7, 4-[2-(4-Bromo-phenoxy)-phenylsulfamoyl]-N-{2-[4-(4,5-dihydro-4H-imidazol-2-yl)-phenyl]-ethyl}-benzamide] | < 20 | < 20
9 | O=C(Nc1ccc(N2CCC(N3CCCCC3)CC2)cc1)c1ccc(S(=O)(=O)Nc2ccccc2Oc2ccc(Cl)cc2Cl)cc1 [Example 8, N-(4-[1,4′]Bipiperidinyl-1′-yl-phenyl)-4-[2-(2,4-dichloro-phenoxy)-phenylsulfamoyl]-benzamide] | 20 to 100 | < 20
10 | O=C(N[C@H]1CC[C@H](CCN2CCCC2)CC1)c1ccc(S(=O)(=O)Nc2ccccc2Oc2ccc(Cl)cc2Cl)cc1 [Example 9, trans-4-[2-(2,4-Dichloro-phenoxy)-phenylsulfamoyl]-N-[4-(2-pyrrolidin-1-ylethyl)-cyclohexyl]-benzamide] | 20 to 100 | < 20
11 | O=C(NCCN1CCN(c2ccncc2)CC1)c1cccc(S(=O)(=O)Nc2ccccc2Oc2ccc(Cl)cc2Cl)c1 [Example 10, 3-[2-(2,4-Dichloro-phenoxy)-phenylsulfamoyl]-N-[2-(4-pyridin-4-yl-piperazin-1-yl)-ethyl]-benzamide dihydrochloride] | 20 to 100 | < 20
12 | O=C(NCCC1CCNCC1)c1ccc(S(=O)(=O)Nc2ccccc2Oc2ccc(Cl)cc2Cl)cc1 [Example 11, 4-[2-(2,4-Dichloro-phenoxy)-phenylsulfamoyl]-N-(2-piperidin-4-ylethyl)-benzamide trifluoroacetate] | 20 to 100 | 20 to 100
13 | O=C(NCCN1CCN(c2ccccn2)CC1)c1ccc(S(=O)(=O)Nc2ccccc2Oc2ccc(Cl)cc2Cl)cc1 [Example 20, 4-[2-(2,4-Dichloro-phenoxy)-phenylsulfamoyl]-N-[2-(4-pyridin-2-yl-piperazin-1-yl)-ethyl]-benzamide trifluoroacetate] | 20 to 100 | 20 to 100
14 | O=C(NCCc1ccc(C2=NCCN2)cc1)c1ccc(S(=O)(=O)Nc2ccccc2Oc2ccc(Br)cc2Cl)cc1 [Example 22, 4-[2-(4-Bromo-2-chloro-phenoxy)-phenylsulfamoyl]-N-{2-[4-(4,5-dihydro-1H-imidazol-2-yl)-phenyl]-ethyl}-benzamide] | < 20 | < 20
15 | N=C(N)NCc1ccc(CNC(=O)c2ccc(S(=O)(=O)Nc3ccccc3Oc3ccc(Br)cc3)cc2)cc1 [Example 23, 4-[2-(4-Bromo-phenoxy)-phenylsulfamoyl]-N-(4-guanidinomethyl-benzyl)-benzamide hydrochloride] | 100 to 500 | 20 to 100
16 | CN1CCC(N2CCC(CCNC(=O)c3ccc(S(=O)(=O)Nc4ccccc4Oc4ccc(Cl)cc4Cl)cc3)CC2)CC1 [Example 24, 4-[2-(2,4-Dichloro-phenoxy)-phenylsulfamoyl]-N-[2-(1-methyl-[1,4′]bipiperidinyl-4-yl)-ethyl]-benzamide] | < 20 | < 20
17 | CC(CNC(=O)c1ccc(S(=O)(=O)Nc2ccccc2Oc2ccc(Cl)cc2Cl)cc1)N1CCN(c2ccncc2)CC1 (stereo not drawn) [Example 28, 4-[2-(2,4-Dichloro-phenoxy)-phenylsulfamoyl]-N-{2-[4-pyridin-4-yl-piperazin-1-yl)-propyl]-benzamide] | < 20 | < 20
18 | O=C(NCCNC(=O)C1CCNCC1)c1ccc(S(=O)(=O)Nc2ccccc2Oc2ccc(Cl)cc2Cl)cc1 [Example 29, Piperidine-4-carboxylic acid (2-{4-[2-(2,4-dichloro-phenoxy)-phenylsulfamoyl]-benzoylamino}-ethyl)-amide hydrochloride] | 20 to 100 | 20 to 100
19 | O=C(NCCCC1CCNCC1)c1ccc(S(=O)(=O)Nc2ccccc2Oc2ccc(Br)cc2Cl)cc1 [Example 30, 4-[2-(4-Bromo-2-chloro-phenoxy)-phenylsulfamoyl]-N-(3-piperidin-4-yl-propyl)-benzamide hydrochloride] | 20 to 100 | 20 to 100
20 | O=C(CCNC(=O)c1ccc(S(=O)(=O)Nc2ccccc2Oc2ccc(Cl)cc2Cl)cc1)NC1CCNCC1 [Example 33, 4-[2-(2,4-Dichloro-phenoxy)-phenylsulfamoyl]-N-[2-(piperidin-4-ylcarbamoyl)-ethyl]-benzamide acetate] | 20 to 100 | 20 to 100
21 | Cc1cccc(N2CCN(CCNC(=O)c3ccc(S(=O)(=O)Nc4ccccc4Oc4ccc(Cl)cc4Cl)cc3)CC2)n1 [Example 36, 4-[2-(2,4-Dichloro-phenoxy)-phenylsulfamoyl]-N-{2-[4-(6-methyl-pyridin-2-yl)-piperazin-1-yl]-ethyl}-benzamide] | 20 to 100 | < 20

From patent US20100075978A1, “SULFONAMIDE DERIVATIVES AS BRADYKININ ANTAGONISTS” (priority 2006, published 2010)
